Entries after “also recorded” stand apart in the source; their conditions may differ. Peptide text beside a SMILES is read from it. * marks the point of attachment. Cbz = O=C(OCc1ccccc1)*
Assays:
Assay type in all cases: cell-based, human
IP3R3 [1] = assay: IP3R3 levels and FBXL2 binding in HEK293T cells transfected with Flag-tagged FBXL2 constructs
Protocol: 24 h post-transfection, cells were treated with MG132 for 3 h before harvesting for immunoprecipitation and immunoblotting as indicated. WCL, whole-cell lysate from untransfected cells. […] After harvesting, cells were lysed, and cell membranes (CM) were isolated and immunoprecipitated with either a normal mouse IgG or an anti-Flag antibody. Subsequently, immunoprecipitates were analysed by immunoblotting as indicated. The results of these experiments (n=2) indicate that FBXL2 is incorporated into a complete SCF ligase that binds its substrate(s) at cellular membranes. […] After harvesting, cells were lysed and cytoplasmic (CYTO) and cell membrane (CM) fractions were isolated and analysed by immunoblotting as indicated. Actin and calnexin are used as markers for cytoplasmic and cell membrane fractions, respectively. This experiment was performed twice. […] 24 h post-transfection, where indicated, cells were treated with MG132 for 3 h before harvesting for immunoprecipitation and immunoblotting. Ned. CUL1, neddylated CUL1. […] The experiment was performed in the presence or absence of MG132 as indicated. Whole-cell lysates were immunoblotted as indicated. The asterisk indicates a non-specific band. This experiment was performed twice. […] P values were calculated by unpaired t-test. Error bars indicate s.e.m. […] Error bars indicate s.e.m. The values represent the ratios between FBXL2 and GAPDH mRNAs. […]

IP3R3 [2] = assay: Serum-mediated degradation of IP3R3 in serum-starved, serum re-stimulated NHFs (immunoblotting); conditions: NHFs serum-starved 72 h, re-stimulated with serum; 10 μM MG132, 10 μM Eer1
Protocol: 24 h post-transfection, cells were treated with MG132 for 3 h before harvesting for immunoprecipitation and immunoblotting as indicated. WCL, whole-cell lysate from untransfected cells. […] After harvesting, cells were lysed, and cell membranes (CM) were isolated and immunoprecipitated with either a normal mouse IgG or an anti-Flag antibody. Subsequently, immunoprecipitates were analysed by immunoblotting as indicated. The results of these experiments (n=2) indicate that FBXL2 is incorporated into a complete SCF ligase that binds its substrate(s) at cellular membranes. […] After harvesting, cells were lysed and cytoplasmic (CYTO) and cell membrane (CM) fractions were isolated and analysed by immunoblotting as indicated. Actin and calnexin are used as markers for cytoplasmic and cell membrane fractions, respectively. This experiment was performed twice. […] 24 h post-transfection, where indicated, cells were treated with MG132 for 3 h before harvesting for immunoprecipitation and immunoblotting. Ned. CUL1, neddylated CUL1. […] The experiment was performed in the presence or absence of MG132 as indicated. Whole-cell lysates were immunoblotted as indicated. The asterisk indicates a non-specific band. This experiment was performed twice. […] P values were calculated by unpaired t-test. Error bars indicate s.e.m. […] Error bars indicate s.e.m. The values represent the ratios between FBXL2 and GAPDH mRNAs. […] Cells were subsequently stimulated with medium containing serum and harvested at the indicated times for immunoblotting. […] Error bars indicate s.e.m. […] Cells were subsequently stimulated with medium containing serum and harvested at the indicated time points for immunoblotting. […] Error bars indicate s.e.m. […] Exon 2 and exon 3 refer to the human FBXL2 gene in NC_000003.12 (GRCh38.p7 (Gene Bank ID: 3129728)). […]
FIGS. 6A, 6B, 6C, 6D, 6E, 6F, 6G, and 6H that the degradation of IP3R3 is dependent on FBXL2 localization to cell membranes and on the segregase activity of p97. […] Samples were analysed by immunoblotting with the indicated antibodies. […]

FBXL2 = assay: Live-cell imaging of GFP-tagged FBXL2 localization in HeLa cells; conditions: HeLa cells transfected with GFP-tagged FBXL2; GGTi-2418 15 μM for 16 h
Protocol: FIGS. 6A, 6B, 6C, 6D, 6E, 6F, 6G, and 6H that the degradation of IP3R3 is dependent on FBXL2 localization to cell membranes and on the segregase activity of p97. […] Live cell imaging was carried out with an LSM510 confocal microscope using a 63× objective. Scale bars, 10 μm. […] Cells were subsequently harvested at the indicated times for immunoblotting. […] Cells were subsequently harvested for immunoblotting. This experiment was performed once. […] The bracket on the right marks a ladder of bands which, presumably, are ubiquitinated species of IP3R3 that are not degraded when p97 is inhibited. […] Cells were subsequently stimulated with medium containing serum and harvested at the indicated time points for immunoblotting. […] Error bars indicate s.e.m. […] Thus, we propose that, after its FBXL2-mediated ubiquitination, IP3R3 is extracted from cell membranes by the segregase activity of p97 to be degraded by the proteasome. […] 24 h post-transfection, cells were treated with MG132 for 3 h before harvesting for immunoprecipitation and immunoblotting as indicated. This experiment was performed twice. […] After immunopurification with an anti-Flag resin, in vitro ubiquitination of IP3R3 was performed in the presence of UAE1, Ubch3, Ubch5 and ubiquitin (Ub). […] Samples were analysed by immunoblotting with the indicated antibodies. […]

IP3R3 [3] = assay: IP3R3 levels in U87 and A549 cells (immunoblotting); conditions: U87 and A549 cells (no or low PTEN); GGTi-2418 for 16 h

CC(C)C[C@@H](C=O)NC(=O)[C@H](CC(C)C)NC(=O)[C@H](CC(C)C)NC(=O)OCc1ccccc1 [MG132] (Cbz-Leu-Leu-Leu-aldehyde)
FBXL2-induced decrease in the levels of IP3R3 (IP3R3 [1]; HEK293T cells expressing wild-type FBXL2, MG132): this decrease was rescued by MG132 treatment | difference in IP3R3 binding between FBXL2(ΔF-box) and wild-type FBXL2 (IP3R3 [1]; HEK293T cells, MG132 for 3 h): this difference was abolished by MG132 treatment | IP3R3 levels / degradation after serum re-stimulation (IP3R3 [2]): much less

Cc1nc[nH]c1CN1CCN(C(=O)N[C@@H](CC(C)C)C(=O)O)[C@@H](Cc2ccccc2)C1=O [GGTi-2418]
FBXL2 localization (FBXL2): delocalized FBXL2; also recorded: delocalizes FBXL2 from membranes | IP3R3 levels (IP3R3 [3]): IP3R3 levels increased
